Measured values taken from US20230201301A1 (priority 2020, published 2023).

System: inflammatory cell-types in the lungs
Design: species or system transgenic mice B6.Cg-Tg(K18-ACE2)2Prlmn/J
Details: mouse, in vivo, ip

LQEEDTGEYGCV (TLT-1 peptide) [LR12]
CD4+ T cells in lungs vs vehicle: no effect
CD8+ T cells in lungs vs vehicle: no effect
CD45+ cells in lungs vs vehicle: decrease
NK cells in lungs vs vehicle: no effect
NKT cells in lungs vs vehicle: lower number
number of monocytes-derived macrophages in lungs vs vehicle: lower
number of neutrophils in lungs vs vehicle: lower
total number of cells in lungs vs vehicle: did not differ
